Patent US20200308170A1, “KRAS G12C INHIBITORS” (Mirati Therapeutics, Inc., priority 2017, published 2020)

Each molecule was assayed against T1, KRas G12C (Homo sapiens, UniProt P01116, C118S/C51S/C80L/G12C) (assay: KRas G12C Modification Assay (LCMS detection of covalent adduct)). Conditions: 5 μM concentration for 3 hours; LC/MS of intact protein; higher POC = higher degree of modification.
T1 construct: GDP-loaded K-Ras (1-169) G12C, C51S, C80L, C118S
Format: binding
Description: A 10 μL aliquot of each protein solution was then transferred to a 384 well microtiter plate. Initial compound stocks were generated at fifty times their desired final assay concentration in DMSO.
Exemplary compounds of Formula (II) were diluted 25-fold into K-Ras Assay Buffer to a final of two times their final concentration. A 10 μL aliquot of each diluted compound solution was then added to each of the protein solutions in the microtiter plate to initiate reaction. […] At each time point, the reactions were quenched with 20 μL of a 25 mM acetic acid solution. […] Once all reactions were quenched, the plates were heat sealed and the samples were injected into a LC/MS system for data acquisition.
Samples were injected in their liquid phase onto a C-3 reverse phase column to remove assay buffer and prepare the samples for mass spectrometer. The proteins were eluted from the column using an acetonitrile gradient and fed directly into the mass analyzer. Initial raw data analysis took place in Agilent MassHunter software immediately post data acquisition.
Raw data analysis of the intact protein was exclusively a deconvolution of the multiple charge states of each protein in solution using a maximum entropy deconvolution provided in Mass Hunter. To minimize complexity, only the data over limited mass ranges were considered for analysis, with a minimum of one Dalton mass step intervals. The heights of all masses identified during raw data analysis were exported to be further analyzed in Spotfire® data analysis software.
Final data analysis was a multistep process in the Spotfire® data analysis software package. Briefly, each protein mass was calculated as a percent of the total signal of that sample, that percentage was then normalized to the percentage of signal of the protein in the absence of reactive compounds. Those normalized signals were reported as normalized percent of control (POC). […] Key: “A”≤25% POC; “B”>25% POC−≤50% POC; “C”>50% POC and ND=not determined.

POC (normalized percent of control; degree of covalent modification of KRas G12C) | SMILES
A (“A”≤25% POC) | C=C(COC)C(=O)N1CCN(c2nc(OC[C@@H]3CCCN3C)nc3c2CCN(c2cccc4cccc(Cl)c24)C3)C[C@@H]1CC#N [Example 14, 2-[(2S)-4-[7-(8-chloro-1-naphthyl)-2-[[(2S)-1-methylpyrrolidin-2-yl]methoxy]-6,8-dihydro-5H-pyrido[3,4-d]pyrimidin-4-yl]-1-[2-(methoxymethyl)prop-2-enoyl]piperazin-2-yl]acetonitrile]
C (“C”>50% POC) | CN1CCC[C@H]1COc1nc2c(c(N3CCN(C(=O)/C=C/C(F)(F)F)[C@@H](CC#N)C3)n1)CCN(c1cccc3cccc(Cl)c13)C2 [Example 19, 2-((S)-4-(7-(8-chloronaphthalen-1-yl)-2-(((S)-1-methylpyrrolidin-2-yl)methoxy)-5,6,7,8-tetrahydropyrido[3,4-d]pyrimidin-4-yl)-1-((E)-4,4,4-trifluorobut-2-enoyl)piperazin-2-yl)acetonitrile]
C (“C”>50% POC) | CN1CCC[C@H]1COc1nc2c(c(N3CCN(C(=O)/C=C/CN4CCC(F)C4)[C@@H](CC#N)C3)n1)CCN(c1cccc3cccc(Cl)c13)C2 (stereo partly drawn) [Example 9, 2-[(2S)-4-[7-(8-chloro-1-naphthyl)-2-[[(2S)-1-methylpyrrolidin-2-yl]methoxy]-6,8-dihydro-5H-pyrido[3,4-d]pyrimidin-4-yl]-1-[(E)-4-(3-fluoropyrrolidin-1-yl)but-2-enoyl]piperazin-2-yl]acetonitrile]
C (“C”>50% POC) | Cc1cccc2cccc(N3CCc4c(nc(OC[C@@H]5CCCN5C)nc4N4CCN(C(=O)C5=CC(=O)CC5)[C@@H](CC#N)C4)C3)c12 [Example 26, 2-((S)-4-(7-(8-methylnaphthalen-1-yl)-2-(((S)-1-methylpyrrolidin-2-yl)methoxy)-5,6,7,8-tetrahydropyrido[3,4-d]pyrimidin-4-yl)-1-(3-oxocyclopent-1-ene-1-carbonyl)piperazin-2-yl)acetonitrile]
C (“C”>50% POC) | CN(C)C/C=C(/F)C(=O)N1CCN(c2nc(OC[C@@H]3CCCN3C)nc3c2CCN(c2cccc4cccc(Cl)c24)C3)C[C@@H]1CC#N [Example 32, 2-[(2S)-4-[7-(8-chloro-1-naphthyl)-2-[[(2S)-1-methylpyrrolidin-2-yl]methoxy]-6,8-dihydro-5H-pyrido[3,4-d]pyrimidin-4-yl]-1-[(E)-4-(dimethylamino)-2-fluoro-but-2-enoyl]piperazin-2-yl]acetonitrile]
C (“C”>50% POC) | Cc1cccc2cccc(N3CCc4c(nc(OC[C@@H]5CCCN5C)nc4N4CCN(C(=O)/C=C/C(N)=O)[C@@H](CC#N)C4)C3)c12 [Example 29, (E)-4-((S)-2-(cyanomethyl)-4-(7-(8-methylnaphthalen-1-yl)-2-(((S)-1-methylpyrrolidin-2-yl)methoxy)-5,6,7,8-tetrahydropyrido[3,4-d]pyrimidin-4-yl)piperazin-1-yl)-4-oxobut-2-enamide]
A (“A”≤25% POC) | C=C(OC)C(=O)N1CCN(c2nc(OC[C@@H]3CCCN3C)nc3c2CCN(c2cccc4cccc(C)c24)C3)C[C@@H]1CC#N [Example 41, 2-[(2S)-1-(2-methoxyprop-2-enoyl)-4-[7-(8-methyl-1-naphthyl)-2-[[(2S)-1-methylpyrrolidin-2-yl]methoxy]-6,8-dihydro-5H-pyrido[3,4-d]pyrimidin-4-yl]piperazin-2-yl]acetonitrile]
C (“C”>50% POC) | COC/C=C/C(=O)N1CCN(c2nc(OC[C@@H]3CCCN3C)nc3c2CCN(c2cccc4cccc(C)c24)C3)C[C@@H]1CC#N [Example 40, 2-((S)-1-((E)-4-methoxybut-2-enoyl)-4-(7-(8-methylnaphthalen-1-yl)-2-(((S)-1-methylpyrrolidin-2-yl)methoxy)-5,6,7,8-tetrahydropyrido[3,4-d]pyrimidin-4-yl)piperazin-2-yl)acetonitrile]
C (“C”>50% POC) | Cc1cccc2cccc(N3CCc4c(nc(OC[C@@H]5CCCN5C)nc4N4CCN(C(=O)/C=C/C#N)[C@@H](CC#N)C4)C3)c12 [Example 30, (E)-4-((S)-2-(cyanomethyl)-4-(7-(8-methylnaphthalen-1-yl)-2-(((S)-1-methylpyrrolidin-2-yl)methoxy)-5,6,7,8-tetrahydropyrido[3,4-d]pyrimidin-4-yl)piperazin-1-yl)-4-oxobut-2-enenitrile]
C (“C”>50% POC) | C=C(Cl)C(=O)N1CCN(c2nc(OC[C@@H]3CCCN3C)nc3c2CCN(c2cccc(C)c2C)C3)C[C@@H]1CC#N [Example 2, 2-[(2S)-1-(2-chloroprop-2-enoyl)-4-[7-(2,3-dimethylphenyl)-2-[[(2S)-1-methylpyrrolidin-2-yl]methoxy]-6,8-dihydro-5H-pyrido[3,4-d]pyrimidin-4-yl]piperazin-2-yl]acetonitrile]
C (“C”>50% POC) | CN1CCC[C@H]1COc1nc2c(c(N3CCN(C(=O)C#CCO)[C@@H](CC#N)C3)n1)CCN(c1cccc3ccccc13)C2 [Example 3, 2-((S)-1-(4-hydroxybut-2-ynoyl)-4-(2-(((S)-1-methylpyrrolidin-2-yl)methoxy)-7-(naphthalen-1-yl)-5,6,7,8-tetrahydropyrido[3,4-d]pyrimidin-4-yl)piperazin-2-yl)acetonitrile]
A (“A”≤25% POC) | C=C(C(=O)N1CCN(c2nc(OC[C@@H]3CCCN3C)nc3c2CCN(c2cccc(C)c2C)C3)C[C@@H]1CC#N)C(F)(F)F [Example 16, 2-((S)-4-(7-(2,3-dimethylphenyl)-2-(((S)-1-methylpyrrolidin-2-yl)methoxy)-5,6,7,8-tetrahydropyrido[3,4-d]pyrimidin-4-yl)-1-(2-(trifluoromethyl)acryloyl)piperazin-2-yl)acetonitrile]
C (“C”>50% POC) | Cc1cccc2cccc(N3CCc4c(nc(OC[C@@H]5CCCN5C)nc4N4CCN(C(=O)/C=C/c5ccccn5)[C@@H](CC#N)C4)C3)c12 [Example 22, 2-((S)-4-(7-(8-methylnaphthalen-1-yl)-2-(((S)-1-methylpyrrolidin-2-yl)methoxy)-5,6,7,8-tetrahydropyrido[3,4-d]pyrimidin-4-yl)-1-((E)-3-(pyridin-2-yl)acryloyl)piperazin-2-yl)acetonitrile]
C (“C”>50% POC) | Cc1cccc2cccc(N3CCc4c(nc(OC[C@@H]5CCCN5C)nc4N4CCN(C(=O)/C=C/C(F)(F)F)[C@@H](CC#N)C4)C3)c12 [Example 20, 2-((S)-4-(7-(8-methylnaphthalen-1-yl)-2-(((S)-1-methylpyrrolidin-2-yl)methoxy)-5,6,7,8-tetrahydropyrido[3,4-d]pyrimidin-4-yl)-1-((E)-4,4,4-trifluorobut-2-enoyl)piperazin-2-yl)acetonitrile]
C (“C”>50% POC) | Cc1cccc2cccc(N3CCc4c(nc(OC[C@@H]5CCCN5C)nc4N4CCN(C(=O)/C=C/CF)[C@@H](CC#N)C4)C3)c12 [Example 35, 2-((S)-1-((E)-4-fluorobut-2-enoyl)-4-(7-(8-methylnaphthalen-1-yl)-2-(((S)-1-methylpyrrolidin-2-yl)methoxy)-5,6,7,8-tetrahydropyrido[3,4-d]pyrimidin-4-yl)piperazin-2-yl)acetonitrile]
C (“C”>50% POC) | Cc1cccc2cccc(N3CCc4c(nc(OC[C@@H]5CCCN5C)nc4N4CCN(C(=O)/C=C/C(F)F)[C@@H](CC#N)C4)C3)c12 [Example 24, 2-((S)-1-((E)-4,4-difluorobut-2-enoyl)-4-(7-(8-methylnaphthalen-1-yl)-2-(((S)-1-methylpyrrolidin-2-yl)methoxy)-5,6,7,8-tetrahydropyrido[3,4-d]pyrimidin-4-yl)piperazin-2-yl)acetonitrile]
C (“C”>50% POC) | Cc1cccc2cccc(N3CCc4c(nc(OC[C@@H]5CCCN5C)nc4N4CCN(C(=O)/C=C/c5cnn(C)c5)[C@@H](CC#N)C4)C3)c12 [Example 23, 2-((S)-1-((E)-3-(1-methyl-1H-pyrazol-4-yl)acryloyl)-4-(7-(8-methylnaphthalen-1-yl)-2-(((S)-1-methylpyrrolidin-2-yl)methoxy)-5,6,7,8-tetrahydropyrido[3,4-d]pyrimidin-4-yl)piperazin-2-yl)acetonitrile]
B (“B”>25% POC−≤50% POC) | C=C(CO)C(=O)N1CCN(c2nc(OC[C@@H]3CCCN3C)nc3c2CCN(c2cccc(C)c2C)C3)C[C@@H]1CC#N [Example 17, 2-((S)-4-(7-(2,3-dimethylphenyl)-2-(((S)-1-methylpyrrolidin-2-yl)methoxy)-5,6,7,8-tetrahydropyrido[3,4-d]pyrimidin-4-yl)-1-(2-(hydroxymethyl)acryloyl)piperazin-2-yl)acetonitrile]
